The target in this test is T1, Human TREM2 (Homo sapiens, UniProt Q9NZC2).
T1 construct: expressed in transfected cells
The test can be described thus: Human TREM2 activity: cellular phosphorylation of Syk (AlphaLISA SureFire Ultra p-SYK) in HEK293/DAP12+TREM2 stable cell line. In kind it is cell-based. The settings on record: for EC50: phospho-Syk AlphaLISA signal, HEK293/DAP12+TREM2 cells, concentration giving 50% of maximal response, read-out: EC50. An excerpt: Human TREM2, in vitro Measurement of Triggering Receptor Expressed on Myeloid Cells 2 activity using cellular phosphorylation of Spleen Tyrosine Kinase (“Syk”) Assay
HEK-293 cells were co-transfected with separate plasmids encoding TREM2 and DAP12 to generate a stable cell line. After antibiotic selection, functional clone pool analysis and two successive limiting dilutions, the final clone “HEK293/DAP12+TREM2” underwent a qPCR analysis and a pharmacological validation.
TREM2 signaling through DAP12 was monitored in the HEK293/DAP12+TREM2 stable cell line by measuring the phosphorylation levels of the Syk kinase using the commercially available AlphaLISA SureFire Ultra p-SYK (Tyr525/526) Assay Kit (PerkinElmer #ALSU-PSYK), based on the Perkin Elmer AlphaScreen/AlphaLISA technology.
Compounds are transferred to the test plate and tested in full dose response, 8 concentrations in quadruplicate data points. Compound serial dilutions were performed at Cybi-Felix instrument in 100% DMSO and the dose response curves were assembled in automated fashion in 384MPT at Hamilton STARlet instrument. All the stock solutions were prepared at 20 mM in 100% DMSO. For compounds testing, the starting concentration was 100 μM, dilution steps 1:6. […] Finally, a 384MPT reformatted for all compounds at 8 concentrations, quadruplicates, was used as “mother to child” process with a CyBi®-Well dispenser in which 1 μL of each compound was moved into a destination plate pre-filled with 65.6 μL of EMEM cell culture medium (BIOWHITTAKER_cat.BE12-125F), thus obtaining 3× concentrated compounds working solution. In columns 1-2 and 23-24 the control wells were added. In particular, dose response curves of a reference control agonist were included in column 1 and 24 as reference control agonist (Reference control agonists used include Human TREM2 polyclonal Antibody AF1828: R&D Systems; Human TREM2 monoclonal Antibody MAB1828: R&D Systems). The dose response curves were tested starting at 30 μM, dilution step 1:6. Both “source” compound plate and “destination” compound plate were barcoded and a relationship between the two plates was thus generated.
HEK293/DAP12+TREM2 cells were cultured in EMEM medium supplemented with IX Penicillin/Streptomycin (BIOWHITTAKER_cat.DE17-602E), ULTRAGLUTAMINE I 200 mM, 10% Fetal Bovine Serum plus antibiotics referred to as “HEK293 Culture Medium”. The day before the experiment, cells were detached by gentle wash with DPBS, followed by 5 min incubation at 37° C. with Trypsin solution. Cells were then diluted in HEK293 Culture Medium without antibiotics, counted and seeded into 384-well poly-D-Lysine coated microplates black/clear bottom (GREINER 781946) at a density of 10,000 cells/well in 25 μL/well by the use of a MATRIX WellMate dispenser. Plates were placed into a humidified cell culture incubator at 37° C. with 5% CO2 until the experimental day. 20-24 hours after seeding mature medium was removed and replaced with 10 μL/well of EMEM cell medium supplemented with 0.1% Pluronic F-68 non-ionic surfactant (Thermofisher, 24040032), referred to as “Assay Buffer”, using the CyBi®-Well instrument. Then 5 μL/well of Assay Buffer containing 3× concentrated test compounds or the reference control agonist (in 0.5% final DMSO concentration) were added to the cells with the CyBi®-Well instrument. Cell plates were incubated for 30 min into a humidified cell culture incubator at 37° C. with 5% CO2·, then the medium was removed by manually discard. 20 μL/well of lysis buffer were dispensed using the CyBi®-Well instrument and plates were incubated for 10 min at room temperature on a plate shaker (350 rpm). Then, 10 μL/well of lysate were transferred to the Alpha plates. The CyBi®-Well instrument was used to dispense 5 μL/well of AlphaLISA Acceptor Bead Solution in IX Immunoassay buffer (Perkin Elmer AL000F). Then the plates were sealed with Heat sealing foil, shaked for 2 minutes (350 rpm) and incubated for 1 hour at room temperature.
(Alpha assays give light when donor and acceptor beads are brought close together.)

Setting [1] is: HEK293, maximal response relative to reference agonist example 1B (remaining examples), read-out: Emax.

Like-named read-outs stand apart in the source and are kept apart here.

T1 sequence (Q9NZC2 19-230): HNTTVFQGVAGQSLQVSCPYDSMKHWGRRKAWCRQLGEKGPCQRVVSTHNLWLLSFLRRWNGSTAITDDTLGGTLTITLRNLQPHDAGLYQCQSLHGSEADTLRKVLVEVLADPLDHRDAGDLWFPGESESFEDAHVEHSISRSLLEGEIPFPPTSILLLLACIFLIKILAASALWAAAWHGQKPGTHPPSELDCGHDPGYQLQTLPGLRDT
T1 sequence (O43914 22-113 partner): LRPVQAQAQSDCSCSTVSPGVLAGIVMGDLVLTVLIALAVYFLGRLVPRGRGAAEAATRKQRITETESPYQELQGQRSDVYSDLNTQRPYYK

One may read the Emax as the maximal effect, on the per cent scale that the assay sets. By EC50 is commonly meant the concentration giving half of the maximal effect. As to `Cc1nc2c(-c3ccc(Cl)cc3F)nc(N3CCC[C@H](Oc4cnn(C)c4)C3)nc2c(=O)n1C` [Example 75, (S)-8-(4-chloro-2-fluorophenyl)-2,3-dimethyl-6-(3-((1-methyl-1H-pyrazol-4-yl)oxy)piperidin-1-yl)pyrimido[5,4-d]pyrimidin-4 (3H)-one], the EC50 fell in the range of 100 to 1000 nM. For the same compound, the Emax under setting [1] was below 75%.

Turning to `Cc1nc2c(-c3cc(F)c(F)cc3F)nc(N3C[C@H](c4cnn(C)c4)OC4(CCC4)C3)cc2c(=O)n1C` (single isomer, unassigned) [Example 152B], the EC50 was above 1000 nM. Further, the maximal response (Emax) under setting [1] was below 75%.

`Cc1cc([C@H]2CN(c3cc4c(=O)n(C)c(C)nc4c(-c4ccc(C(F)(F)F)nc4)n3)C[C@@H](C)O2)ccn1` (single isomer, unassigned) [Example 199B]: the concentration giving a half-maximal response (EC50) was below 1 nM. Moreover, the Emax under setting [1] was in the range of 75 to 110%.

On to `Cc1nc2c(-c3ccc(Cl)cc3F)nc(N3CCCC(N4CC(F)(F)C4)C3)nc2c(=O)n1C` (centres unmarked) [Example 80, 8-(4-chloro-2-fluorophenyl)-6-(3-(3,3-difluoroazetidin-1-yl)piperidin-1-yl)-2,3-dimethylpyrimido[5,4-d]pyrimidin-4 (3H)-one], for which the EC50 is above 1000 nM. For the same compound, the Emax under setting [1] was below 75%.

For `Cc1cc([C@@H]2CN(c3cc4c(=O)n(C)c(C)nc4c(-c4ccc(F)cc4F)n3)C[C@H](C)O2)ccn1` (single isomer, unassigned) [Example 182A], the EC50 is 1 to 10 nM. Besides, the Emax under setting [1] is above 110%.

`Cc1nc2c(-c3ccc(Cl)cc3F)nc(N3CC(Oc4cnn(C)c4)C3)nc2c(=O)n1C` [Example 16, 8-(4-chloro-2-fluorophenyl)-2,3-dimethyl-6-(3-((1-methyl-1H-pyrazol-4-yl)oxy)azetidin-1-yl)pyrimido[5,4-d]pyrimidin-4 (3H)-one]: the EC50 fell in the range of 100 to 1000 nM. Further, the Emax under setting [1] fell in the range of 75 to 110%.

For `Cc1nc2c(-c3ccc(Cl)cc3F)nc(N3CCOC(c4cnn(C5COC5)c4)C3)nc2c(=O)n1C` (centres unmarked) [Example 40, 8-(4-chloro-2-fluorophenyl)-2,3-dimethyl-6-(2-(1-(oxetan-3-yl)-1H-pyrazol-4-yl)morpholino)pyrimido[5,4-d]pyrimidin-4 (3H)-one], the EC50 was in the range of 10 to 100 nM. Further, under setting [1], the Emax was in the range of 75 to 110%.

As for `Cc1nc2c(C3CCC(C)CC3)nc(N3CCOC(c4cnn(C)c4)C3)nc2c(=O)n1C` (centres unmarked) [Example 12b, 2,3-dimethyl-6-(2-(1-methyl-1H-pyrazol-4-yl)morpholino)-8-((1r,4r)-4-methylcyclohexyl)pyrimido[5,4-d]pyrimidin-4 (3H)-one], the EC50 was in the range of 100 to 1000 nM. Moreover, the Emax entry (maximal response relative to reference agonist example 1B (remaining examples)) is on record as “++ (75-110%)”.

Consider `Cc1cc([C@H]2CN(c3nc(-c4cc(F)c(F)cc4F)c4nc(C(F)(F)F)n(C)c(=O)c4n3)CCO2)ccn1` (single isomer, unassigned) [Example 155B], for which the EC50 is 10 to 100 nM. Further, the Emax under setting [1] lay in the range of 75 to 110%.

Take `Cc1nc2c(-c3ccc(Cl)cc3F)nc(N3CC(c4cnn(C)c4)OC4(CCC4)C3)nc2c(=O)n1C` (centres unmarked) [Example 90, 8-(4-chloro-2-fluorophenyl)-2,3-dimethyl-6-(6-(1-methyl-1H-pyrazol-4-yl)-5-oxa-8-azaspiro(3,5)nonan-8-yl)pyrimido(5,4-d)pyrimidin-4 (3H)-one]: the EC50 was 1 to 10 nM. Under setting [1], the Emax was 75 to 110%.

With `Cc1cc([C@H]2CN(c3cc4c(=O)n(C)c(C)nc4c(-c4ccc(C(F)(F)F)cc4F)n3)CC(C)(C)O2)ccn1` (single isomer, unassigned) [Example 163B], the EC50 lay within 1 to 10 nM. Moreover, the Emax under setting [1] lay in the range of 75 to 110%.

Turning to `Cc1nc2c(-c3ccc(C#N)cc3F)nc(N3C[C@@H](C)O[C@@H](c4cnn(C5CC5)c4)C3)cc2c(=O)n1C` (single isomer, unassigned) [Example 200B], the EC50 fell in the range of 10 to 100 nM. In addition, under setting [1], the Emax fell in the range of 75 to 110%.

Take `Cc1nc2c(-c3ccc(Cl)cc3F)nc([C@H]3CCO[C@@H](c4cnn(C5CC5)c4)C3)cc2c(=O)n1C` (single isomer, unassigned) [Example 140B]: the concentration giving a half-maximal response (EC50) lay within 10 to 100 nM. Also, the Emax (HEK293) lay in the range of 75 to 110%.

In the case of `Cc1nc2c(-c3ccc(C(F)(F)F)cc3F)nc(N3C[C@@H](c4cnn(C)c4)OC(C)(C)C3)cc2c(=O)n1C` (single isomer, unassigned) [Example 134A], the EC50 fell in the range of 10 to 100 nM. Moreover, the Emax under setting [1] is 75 to 110%.

Regarding `Cc1nc2c(-c3ccc(C(F)(F)F)nc3)nc(N3CCOC(c4cnn(C)c4)C3)nc2c(=O)n1C` (centres unmarked) [Example 4, 2,3-dimethyl-6-(2-(1-methyl-1H-pyrazol-4-yl)morpholino)-8-(6-(trifluoromethyl)pyridin-3-yl)pyrimido[5,4-d]pyrimidin-4(3H)-one], the EC50 is 100 to 1000 nM. Also, under setting [1], the Emax lay within 75 to 110%.

Regarding `Cc1nc2c(-c3cc(F)c(F)cc3F)nc(N3CCO[C@H](c4cnn(C5CC5)c4)C3)cc2c(=O)n1C` (single isomer, unassigned) [Example 133A], the 50% effective concentration (EC50) is 10 to 100 nM. Further, the Emax under setting [1] lay within 75 to 110%.

As to `Cc1nc2c(-c3ccc(C(F)(F)F)cc3F)nc(N3CCO[C@H](c4cnn(C)c4)C3)nc2c(=O)n1C` (single isomer, unassigned) [Example 25A], the EC50 is 10 to 100 nM. Under setting [1], the Emax was below 75%.

Regarding `COCC1CN(c2nc(-c3ccc(Cl)cc3F)c3nc(C)n(C)c(=O)c3n2)CCO1` (centres unmarked) [Example 52, 8-(4-chloro-2-fluorophenyl)-6-(2-(methoxymethyl)morpholino)-2,3-dimethylpyrimido[5,4-d]pyrimidin-4(3H)-one], the EC50 lay within 100 to 1000 nM. Also, the Emax under setting [1] fell in the range of 75 to 110%.

Turning to `Cc1cc([C@@H]2CN(c3cc4c(=O)n(C)c(C)nc4c(-c4ccc(Cl)cc4F)n3)CC(C)(C)O2)ccn1` (single isomer, unassigned) [Example 172A], the half-maximal effective concentration (EC50) was in the range of 100 to 1000 nM. Besides, under setting [1], the Emax is below 75%.

With `COCCn1c(C)nc2c(-c3ccc(Cl)cc3F)nc(N3CCOC(c4cnn(C)c4)C3)nc2c1=O` (centres unmarked) [Example 61, 8-(4-chloro-2-fluorophenyl)-3-(2-methoxyethyl)-2-methyl-6-(2-(1-methyl-1H-pyrazol-4-yl)morpholino)pyrimido[5,4-d]pyrimidin-4(3H)-one], the EC50 fell in the range of 10 to 100 nM. Under setting [1], the Emax is below 75%.

Turning to `Cc1nc2c(-c3cc(F)c(F)cc3F)nc([C@H]3CCO[C@@H](c4cnn(C5CC5)c4)C3)nc2c(=O)n1C` (single isomer, unassigned) [Example 97B], the EC50 is above 1000 nM. Further, the Emax under setting [1] was below 75%.

Regarding `Cc1cc([C@@H]2CN(c3nc(-c4ccc(F)cc4F)c4nc(C)n(C)c(=O)c4n3)CC(F)(F)O2)ccn1` (single isomer, unassigned) [Example 169A], the EC50 was below 1 nM. Moreover, the Emax under setting [1] fell in the range of 75 to 110%.

For the compound `Cc1nc2c(-c3ccc(C(F)(F)F)cc3F)nc(N3CCO[C@@H](c4cnn(C5CC5)c4)C3)cc2c(=O)n1C` (single isomer, unassigned) [Example 132B], the EC50 is 100 to 1000 nM. The Emax under setting [1] was below 75%.

As for `Cc1nc2c(-c3cc(F)c(F)cc3F)nc(N3C[C@@H](c4cnn(C)c4)OC(C)(C)C3)nc2c(=O)n1C` (single isomer, unassigned) [Example 101A], the EC50 fell in the range of 10 to 100 nM. For the same compound, the maximal effect (Emax) under setting [1] was in the range of 75 to 110%.

Take `Cc1cc([C@@H]2CN(c3cc4c(=O)n(C)c(C)nc4c(-c4ccc(C(F)(F)F)nc4)n3)CC(C)(C)O2)ccn1` (single isomer, unassigned) [Example 161A]: the EC50 fell in the range of 100 to 1000 nM. In addition, the Emax under setting [1] was below 75%.

(Values after patent US20260200926A1, “TREM2 MODULATORS” (Muna Therapeutics ApS, priority 2022, published 2026).)
